According to ChEMBL document CHEMBL1201862, “PubChem BioAssay data set” (2004):
The source made the active and inactive calls. For most assays here, no stated cut-off is given here; in the data, actives have a measured EC50 and inactives only a lower limit.

Assays:
[1] = HEp-2 cell cytotoxicity, dose response, cytotoxicity control for RSV inhibitor project, HTS (AID 2410); type: functional; settings: human respiratory syncytial virus
[2] = Luminescence Cell-Based Dose Response HTS to Identify Activators of Luciferase Translation or Activity in H4 […] Cells. [Related pubchem assays: 1829 (Project Summary), 1814 (Primary HTS)]; type: functional
[3] = tested on: H4; assay: Luminescence Cell-Based Dose Response HTS to Identify Activators of 5'UTR Stem-Loop Driven Prion Protein mRNA Translation in H4 Neuroglioblastoma Cells. [Related pubchem assays: 1829 (Project Summary), 1814 (Primary HTS)]; type: functional; settings: Homo sapiens
[4] = biological target: T1, Rac GTPase-activating protein 1 (Homo sapiens, UniProt Q9H0H5); assay: MgcRacGAP GTPase-activating activity inhibitors, confirmation, biochemical, ADP Hunter fluorescence, primary and confirmatory (AID 624330); type: functional
T1 sequence (Q9H0H5 whole entry): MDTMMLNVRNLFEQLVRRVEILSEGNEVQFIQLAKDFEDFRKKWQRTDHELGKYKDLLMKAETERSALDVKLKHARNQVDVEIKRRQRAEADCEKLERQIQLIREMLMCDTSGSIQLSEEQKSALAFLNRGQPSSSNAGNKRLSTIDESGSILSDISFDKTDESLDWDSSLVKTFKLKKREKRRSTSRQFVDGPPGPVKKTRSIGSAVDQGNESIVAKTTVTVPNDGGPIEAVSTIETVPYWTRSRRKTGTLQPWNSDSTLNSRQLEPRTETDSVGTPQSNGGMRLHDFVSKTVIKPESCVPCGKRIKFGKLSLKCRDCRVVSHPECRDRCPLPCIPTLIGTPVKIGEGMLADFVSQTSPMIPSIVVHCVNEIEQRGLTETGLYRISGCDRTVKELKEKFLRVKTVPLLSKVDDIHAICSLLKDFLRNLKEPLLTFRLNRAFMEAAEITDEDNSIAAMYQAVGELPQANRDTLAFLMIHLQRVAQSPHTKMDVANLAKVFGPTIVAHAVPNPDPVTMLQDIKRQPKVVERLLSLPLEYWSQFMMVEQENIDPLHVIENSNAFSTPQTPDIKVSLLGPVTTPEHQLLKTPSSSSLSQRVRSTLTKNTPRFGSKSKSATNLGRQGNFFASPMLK

[5] = biological target: Paired box protein Pax-8 (Homo sapiens, UniProt Q06710); assay: inhibitors of PAX8-driven TPO luciferase reporter, dose response, RMG-I cells, cherry-pick (AID 687027); type: functional, cell-based;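 further: luciferase reporter driven by Pax8 target thyroperoxidase promoter measured by SteadyGlo luminescence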
[6] = Luminescence Cell-Based Dose Confirmation HTS to Identify Activators of 5'UTR Stem-Loop Driven Alpha-Synuclein mRNA Translation in H4 Neuroglioblastoma Cells. [Related pubchem assays: 1829 (Project Summary), 1814 (Primary HTS)]; type: functional
[7] = inhibitors of firefly luciferase expression or activity, dose response, H4 neuroglioma cells, luminescence (AID 1990); type: functional, cell-based
[8] = tested on: Streptococcus sp. 'group A'; assay: growth inhibition of control SK(-) GAS strain, dose response, counter-screen for streptokinase expression inhibitor project, luminescence, kanamycin, BacTiterGlo, confirmation (AID 1900); type: functional, organism-based; settings: read-out: EC50
[9] = Luminescence Cell-Based Dose Response HTS to Identify Inhibitors of 5'UTR Stem-Loop Driven Prion Protein mRNA Translation in H4 Neuroglioblastoma Cells. [Related pubchem assays: 1827 (Project Summary), 1813 (Primary HTS)]; type: functional
[10] = inhibitors of SNCA 5'UTR-driven reporter translation, confirmation, H4 neuroglioma cells, luminescence (AID 1988); type: functional, cell-based
[11] = biological target: T2, Streptokinase A (Streptococcus pyogenes serotype M1, UniProt P10520); assay: S. pyogenes streptokinase expression inhibitors, potency, dose response, plasminogen activation absorbance, OD405 (AID 1914); type: functional, Streptococcus pyogenes M1 GAS;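 further: secreted streptokinase activity via plasminogen activation per viability signal from cell pellet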
T2 sequence (P10520 whole entry): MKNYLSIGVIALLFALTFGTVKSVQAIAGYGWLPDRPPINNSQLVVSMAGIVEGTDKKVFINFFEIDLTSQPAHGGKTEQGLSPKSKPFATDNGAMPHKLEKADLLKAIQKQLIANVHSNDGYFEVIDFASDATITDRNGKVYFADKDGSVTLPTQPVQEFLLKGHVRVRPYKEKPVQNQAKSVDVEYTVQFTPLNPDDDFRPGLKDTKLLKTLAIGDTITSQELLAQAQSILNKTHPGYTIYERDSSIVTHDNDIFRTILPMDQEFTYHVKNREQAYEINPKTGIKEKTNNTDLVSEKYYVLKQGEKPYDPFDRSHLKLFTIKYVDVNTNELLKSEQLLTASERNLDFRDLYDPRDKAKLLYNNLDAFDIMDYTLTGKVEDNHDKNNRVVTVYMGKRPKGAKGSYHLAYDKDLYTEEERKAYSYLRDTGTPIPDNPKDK

[12] = tested on: Streptococcus; assay: Group A Streptococcus viability loss, dose response, counter-screen for streptokinase expression inhibitor project, luminescence, BacTiterGlo (AID 1915); type: functional, organism-based;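 further: potency for reduction of bacterial viability or growth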

Sequence of Paired box protein Pax-8 (Q06710 whole entry): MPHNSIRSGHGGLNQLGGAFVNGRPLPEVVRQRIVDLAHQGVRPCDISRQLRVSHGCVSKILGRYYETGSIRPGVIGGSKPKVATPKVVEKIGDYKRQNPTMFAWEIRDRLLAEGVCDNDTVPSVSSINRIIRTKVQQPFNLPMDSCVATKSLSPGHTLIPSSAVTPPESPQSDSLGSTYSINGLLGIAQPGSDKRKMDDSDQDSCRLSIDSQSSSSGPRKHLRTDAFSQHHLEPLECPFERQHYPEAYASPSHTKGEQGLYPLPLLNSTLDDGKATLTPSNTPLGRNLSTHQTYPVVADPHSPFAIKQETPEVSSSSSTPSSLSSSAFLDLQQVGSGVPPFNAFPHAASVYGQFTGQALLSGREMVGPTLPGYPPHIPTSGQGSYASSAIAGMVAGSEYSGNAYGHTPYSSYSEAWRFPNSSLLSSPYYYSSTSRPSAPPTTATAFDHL

SMILES | EC50 [2] | EC50 [3] | EC50 [6] | other results
Cc1cc2c(cc1C)CSC(c1ccccc1OC(=O)C(C)(C)C)SC2 |  |  |  | CC50 [1]: 16.8 µM (active)
CCN(CC)c1ccc(/C=N/N2CCOCC2)c(O)c1 | 4.58 µM (active) | 20 µM (active) |  | IC50 [4]: 75.6 µM (active)
O=C(c1ccc(F)cc1)N1C[C@@H]2N[C@H](C1)[C@@H]2c1ccc(-c2ccc(F)cc2)cc1 |  |  |  | AC50 [5]: 18.3 µM (active)
CC1CCN(C(C(=O)NC2CCCCC2)c2cc3c(cc2[N+](=O)[O-])OCO3)CC1 (configuration not stated) | 25 µM (active) | 22.1 µM (active) | > 120 µM (not active) | 
Cc1cc(C)c(C2C3=C(Nc4c2c(C)nn4-c2ccccn2)c2ccccc2C3=O)c(C)c1 (configuration not stated) |  |  |  | EC50 [7]: 17 µM (active); EC50 [8]: 7.61 µM (active); EC50 [9]: > 120 µM (not active); EC50 [10]: 19.9 µM (active); EC50 [11]: 22.2 µM (active); EC50 [12]: 128 µM (active)
CCc1cc2c(=O)c(-c3ccc4c(c3)OCCO4)coc2cc1OC(=O)c1ccco1 |  |  |  | CC50 [1]: 29.9 µM (active)
CC(=O)Nc1cccc(-n2nnc(SCC(=O)c3ccccc3)n2)c1 | 19.8 µM (active) | 2.02 µM (active) | 10.5 µM (active) | 
O=C(CSc1nc(O)c2cnn(-c3ccccc3)c2n1)N1N=C(c2cccs2)CC1c1ccc(F)cc1 (configuration not stated) |  |  |  | EC50 [8]: 3.15 µM (active); EC50 [11]: > 150 µM (not active); EC50 [12]: 7.18 µM (active)
c1ccc(Cn2c(-c3ccco3)nc3nc4ccccc4nc32)cc1 | 0.127 µM (inconclusive) | > 120 µM (not active) | 11.6 µM (active) | 
O=C(CSc1ncnc2sc3c(c12)CCCC3)c1ccccc1 | 9.61 µM (active) | 28.8 µM (active) | 11.6 µM (active) | 
O=C(Nc1cccc(-c2cccc(Cl)c2)c1)C1CCN(Cc2ccc(CO)o2)CC1 |  |  |  | CC50 [1]: 12.7 µM (active)
COc1cccc(-c2nc(-c3ccc4c(c3)NC(=O)CO4)cs2)c1 | 22.7 µM (active) | 10.8 µM (active) | 17.7 µM (active) | 
COC1C(CO)OC(n2c3c(Cl)cccc3c3c4c(c5c6cccc(Cl)c6[nH]c5c32)C(=O)NC4=O)C(O)C1O (configuration not stated) |  |  |  | AC50 [5]: 1.11 µM (active)
O=C(NCCSc1ccccc1)c1ccco1 | > 120 µM (not active) | 15 µM (active) |  | 
C[C@@H]1CCCCO[C@H](CN(C)Cc2ccc(C(F)(F)F)cc2)[C@H](C)CN([C@H](C)CO)C(=O)c2cc(NC(=O)Nc3ccc(F)cc3)ccc2O1 |  |  |  | AC50 [5]: 10.7 µM (active)
CCCn1c(=N)c(C(=O)NC2CCCC2)cc2c(=O)n3cccc(C)c3nc21 | > 120 µM (not active) | > 120 µM (not active) | > 120 µM (not active) | 
COc1ccc(-c2csc(NC(=O)c3ccc(C(C)(C)C)cc3)c2C(=O)O)cc1 |  |  |  | EC50 [7]: 14.5 µM (active); EC50 [8]: 1.75 µM (active); EC50 [9]: 4.3 µM (active); EC50 [10]: 11.5 µM (active); EC50 [11]: 3.12 µM (inconclusive); EC50 [12]: 7.24 µM (active)
C[C@@H]1CCCCO[C@H](CN(C)S(=O)(=O)c2ccc(Cl)cc2)[C@H](C)CN([C@@H](C)CO)C(=O)c2cc(N(C)C)ccc2O1 |  |  |  | AC50 [5]: 8.81 µM (active)
O=c1cc(Cl)[nH]c(=O)n1CCNc1ncc(C(F)(F)F)cc1Cl | 5.68 µM (active) | 7.52 µM (active) | 12.6 µM (active) | 
CSc1ccc(C2c3[nH]c4ccccc4c3CCN2C(=O)c2cc(C)n(C)n2)cc1 (configuration not stated) | 17.1 µM (active) | 11.8 µM (active) | 14.2 µM (active) | 
Nc1nc2nc[nH]c2c(=S)[nH]1 [THIOGUANINE] |  |  |  | AC50 [5]: 1.18 µM (active)
